Assay results published in patent US20230089916A1, “IRAK DEGRADERS AND USES THEREOF” (Kymera Therapeutics, Inc., priority 2019, published 2023).

Columns and labels:
Type in all cases: cell-based
[1] = test system: OCI-LY10 cells (MYD88 mutant); assay: Cell viability assay (CellTiter-Glo) with OCI-LY10; settings: Homo sapiens, MYD88 mutant line, read-out: OCI-LY10 Viability, CTG IC50
Procedure: Compound-mediated viability effect on OCI-LY10 or TMD8 was quantitatively determined using the CellTiter-Glo® Luminescent Cell Viability Assay kit from Promega (Catalog number G7570) following manufacturer's recommended procedures. Briefly, OCI-LY10 or TMD8 cells were seeded into 384 well plates (Grenier Bio-One, Catalog number 781080) with a density of 10,000 cells per well. Compounds were then added to the assay plate with final top concentration of 10 μM and 1:3 dilution series with total of 9 doses. The final DMSO concentration was normalized to 0.2%. The assay plates were incubated at 37° C. for 4 days under 5% CO2. Then the assay plate was equilibrated at room temperature for 10 minutes. To determine cell viability, 30 μL CellTiter Glo reagent was added to each well and the assay plate was centrifuged at 1000 rpm for 30 second, incubated at room temperature for 10 min, and analyzed by detecting the luminescence using a multimode plate reader (EnVision 2105, PerkinElmer). The data was then analyzed by software Prism 7.0 from GraphPad and the dose response curves were fit using a three-parameter logistic equation to calculate IC50.

[2] = test system: SU-DHL2 cells (MYD88 mutant); assay: Cell viability (CTG) with SU-DHL2; settings: Homo sapiens, SU-DHL-2; MYD88 mutant line
SU-DHL6 cells (MYD88 WT) = assay: Cell viability (CTG) with SU-DHL6; settings: Homo sapiens, SU-DHL-6; MYD88 WT line
U2932 cells (MYD88 WT) = assay: Cell viability (CTG) with U2932; settings: Homo sapiens, MYD88 WT line
[3] = test system: OCI-LY19 cells (MYD88 WT); assay: Cell viability (CTG) with OCI-LY19; settings: Homo sapiens, MYD88 WT line

CC[C@@H]1CC(=O)N[C@@H]1COc1ncc(C#C[C@H]2CC[C@H](CN3CCC(OCCCc4cccc5c4n(C)c(=O)n5C4CCC(=O)NC4=O)CC3)CC2)c2cc(C(N)=O)c(OC)cc12 (some centres unmarked) [I-1]
IC50 [1]: 3.5 µM | IC50 [2]: > 10 µM | IC50 (SU-DHL6 cells (MYD88 WT)): 4.1 µM | IC50 (U2932 cells (MYD88 WT)): > 10 µM | IC50 [3]: > 10 µM
